Test results from patent publication US9796753B2, “N-substituted indenoisoquinolines and syntheses thereof” (Purdue Research Foundation, priority 2005, dated 2017).
Where two headings read alike, the source gives them in different places.

What was measured:
[1] = system: lung HOP-62; experiment: COMPARE screening (NCI human cancer cell line screen), cytotoxicity GI50; format: cell-based; settings: Homo sapiens, HOP-62, 48 h, read-out: Cytotoxicity (GI50) lung HOP-62
In short: (§1)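 Cells of the NCI60 panel were exposed to compound at 100, 10, 1, 0.1 and 0.01 μM for 48 h, then stained with sulforhodamine B. Optical density relative to control was plotted as percentage growth versus log10 concentration.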

[2] = system: renal SN12C; experiment: as above; format: cell-based; settings: Homo sapiens, SN12C, 48 h, read-out: Cytotoxicity (GI50) renal SN12C
In short: as §1

[3] = system: CNS SF-539; experiment: as above; format: cell-based; settings: Homo sapiens, CNSSF-539, 48 h, read-out: Cytotoxicity (GI50) CNS SF-539
In short: as §1

[4] = system: ovarian OVCAR-3; experiment: as above; format: cell-based; settings: Homo sapiens, OVCAR-3, 48 h, read-out: Cytotoxicity (GI50) Ovarian OVCAR-3
In short: as §1

[5] = system: melanoma UACC-62; experiment: as above; format: cell-based; settings: Homo sapiens, UACC-62, 48 h, read-out: Cytotoxicity (GI50) melanoma UACC-62
In short: as §1

[6] = system: colon HCT-116; experiment: as above; format: cell-based; settings: Homo sapiens, HCT-116, 48 h, read-out: Cytotoxicity (GI50) Colon HCT-116
In short: as §1

[7] = system: prostate DU-145; experiment: as above; format: cell-based; settings: Homo sapiens, DU-145, 48 h, read-out: Cytotoxicity (GI50) prostate DU-145
In short: as §1

[8] = target: recombinant TDP1 (Homo sapiens, UniProt Q9NUW8); experiment: Gel-based assay measuring the inhibition of recombinant TDP1; format: biochemical; settings: for IC50: Table 5, determined in duplicate
Protocol: A 5′-[^32P]-labeled single-stranded DNA oligonucleotide containing a 3′-phosphotyrosine (N14Y) was generated as described by Dexheimer et al. (J. Med. Chem. 2009, 52, 7122-7131). The DNA substrate was then incubated with 5 μM recombinant TDP1 in the absence or presence of inhibitor for 15 min at room temperature in a buffer containing 50 mM Tris HCl, pH 7.5, 80 mM KCl, 2 mM EDTA, 1 mM DTT, 40 μg/ml BSA and 0.01% Tween-20. Reactions were terminated by the addition of 1 volume of gel loading buffer [99.5% (v/v) formamide, 5 mM EDTA, 0.01% (w/v) xylene cyanol, and 0.01% (w/v) bromophenol blue]. Samples were subjected to a 16% denaturing PAGE and gels were exposed after drying to a PhosphorImager screen (GE Healthcare). Gel images were scanned using a Typhoon 8600 (GE Healthcare) and densitometric analyses were performed using the ImageQuant software (GE Healthcare).
The TDP1 inhibitory activities of the O-2-substituted indenoisoquinolines were measured by determining their abilities to inhibit the hydrolysis of the phosphodiester linkage between tyrosine and the 3′-end of a DNA oligonucleotide substrate and thus prevent the generation of an oligonucleotide with a free 3′-phosphate (N14P, Scheme 13). Therefore, the disappearance of the gel band for N14P indicates TDP1 inhibition.
Tyrosyl-DNA phosphodiesterase 1 (TDP1) is a DNA repair enzyme that repairs cytotoxic DNA damage induced by Top1 inhibitors.

[9] = target: T1, Human recombinant Top1 (Homo sapiens, UniProt P11387); experiment: Topoisomerase 1-mediated DNA cleavage reactions (B), 117-bp DNA oligonucleotide; format: biochemical; parameters: key to Top1 inhibitory activity (level): 0, no detectable activity; +, weak activity; ++, similar activity to compound 33; +++, greater activity than 33; ++++, equipotent to 32; Ambiguous scores (e.g., between two values) are designated with parentheses (e.g., ++(+) would be between ++ and +++); key to Top1 (compound-induced DNA cleavage due to Top1 inhibition): 0, no detectable activity; +, weak activity; ++, similar activity to compound 5; +++, greater activity than 34; ++++ , equipotent to 32; The (+) ranking indicates the activity lies between two given values; settings: Table 5; for Top1 inhibitory activity (level): relative to compounds 32 and 33; for Top1 (compound-induced DNA cleavage due to Top1 inhibition): semiquantitative scale relative to 1 μM camptothecin (32) or MJ-III-65 (34)
T1 construct: made in house
T1 sequence (P11387 1-765): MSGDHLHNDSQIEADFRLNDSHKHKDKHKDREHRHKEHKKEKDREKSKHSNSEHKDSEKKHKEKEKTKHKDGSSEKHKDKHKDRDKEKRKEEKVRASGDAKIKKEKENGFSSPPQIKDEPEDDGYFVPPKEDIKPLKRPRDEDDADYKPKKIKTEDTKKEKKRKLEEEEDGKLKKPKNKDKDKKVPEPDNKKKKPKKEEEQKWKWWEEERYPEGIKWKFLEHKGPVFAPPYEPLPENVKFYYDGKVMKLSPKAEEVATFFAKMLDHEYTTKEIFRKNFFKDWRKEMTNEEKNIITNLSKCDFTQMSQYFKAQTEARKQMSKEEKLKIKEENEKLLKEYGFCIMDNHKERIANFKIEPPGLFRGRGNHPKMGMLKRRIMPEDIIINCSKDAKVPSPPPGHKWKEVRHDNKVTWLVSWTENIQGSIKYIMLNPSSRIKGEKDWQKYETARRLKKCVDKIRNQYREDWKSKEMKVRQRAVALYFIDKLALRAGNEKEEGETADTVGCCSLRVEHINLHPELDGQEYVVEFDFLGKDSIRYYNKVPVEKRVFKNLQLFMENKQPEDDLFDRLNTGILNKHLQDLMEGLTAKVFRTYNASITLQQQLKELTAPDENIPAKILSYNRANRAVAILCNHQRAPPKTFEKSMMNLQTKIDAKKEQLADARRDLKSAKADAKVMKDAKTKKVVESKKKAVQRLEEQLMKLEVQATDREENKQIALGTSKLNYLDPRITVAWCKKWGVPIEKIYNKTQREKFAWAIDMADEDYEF
Protocol: Human recombinant Top1 was purified from baculovirus as described in Bailly, C. Curr. Med. Chem. 2000, 7, 39-58. DNA cleavage reactions were prepared as previously reported with the exception of the DNA substrate in Saltz, et al. Oncologist 1997, 2, 402-409.
Approximately 2 nM radiolabeled DNA substrate was incubated with recombinant Top1 in 20 μL of reaction buffer [10 mM Tris-HCl (pH 7.5), 50 mM KCl, 5 mM MgCl2, 0.1 mM EDTA, and 15 μg/mL BSA] at 25° C. for 20 min in the presence of various concentrations of compounds. […] Aliquots of each reaction mixture were subjected to 20% denaturing PAGE. Gels were dried and visualized using a phosphoimager and ImageQuant software (Molecular Dynamics).
All of the new indenoisoquinoline derivatives with C-2 side chains were tested in Top1-mediated DNA cleavage assays. For this purpose, a ^32P 3′-end labeled 117-bp DNA fragment was incubated with Top1 and four 10-fold dilutions starting from 100 μM of a tested compound. The DNA fragments were separated on 20% PAGE denaturing gels. The Top1 inhibitory activities were assigned on the basis of the visual inspection of the number and intensities of the gel bands corresponding to Top1-mediated DNA cleavage fragments. […] Ambiguous scores (e.g., between two values) are designated with parentheses (e.g., ++(+) would be between ++ and +++).

[10] = system: all human cancer cell lines successfully tested; experiment: NCI screen mean graph midpoint (MGM) for growth inhibition; format: cell-based; settings: Table 6; for MGM (mean GI50 across cell lines): all human cancer cell lines successfully tested, range 10^−8 to 10^−4 molar, with standard error; for GI50's against various cell lines (in words): NCI60 cell lines
In short: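 NCI60 panel cells exposed to compound at 100, 10, 1, 0.1 and 0.01 μM for 48 h, then sulforhodamine B staining. Percentage growth versus control plotted against log concentration; MGM is the midpoint across all lines tested.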

[11] = system: breast MCF-7; experiment: NCI60 antiproliferative activity, cytotoxicity GI50; format: cell-based, human; settings: Homo sapiens, MCF7, 48 h, read-out: Cytotoxicity (GI50) breast MCF-7
Protocol: Selected compounds were tested for antiproliferative activity in the National Cancer Institute's developmental therapeutics assay 60 cell line screen (NCI60). The cells were incubated with the tested compounds at 100, 10, 1, 0.1, and 0.01 μM concentrations for 48 h before treatment with sulforhodamine B dye. Optical densities were recorded, and their ratios relative to that of the control were plotted as percentage growth against the log 10 of the tested compound concentrations.

[12] = read-out: TDP1 (IC50, semiquantitative scale)
[13] = read-out: TDP1 inhibitory activity (potency score)

Sequence of recombinant TDP1 (Q9NUW8 whole entry): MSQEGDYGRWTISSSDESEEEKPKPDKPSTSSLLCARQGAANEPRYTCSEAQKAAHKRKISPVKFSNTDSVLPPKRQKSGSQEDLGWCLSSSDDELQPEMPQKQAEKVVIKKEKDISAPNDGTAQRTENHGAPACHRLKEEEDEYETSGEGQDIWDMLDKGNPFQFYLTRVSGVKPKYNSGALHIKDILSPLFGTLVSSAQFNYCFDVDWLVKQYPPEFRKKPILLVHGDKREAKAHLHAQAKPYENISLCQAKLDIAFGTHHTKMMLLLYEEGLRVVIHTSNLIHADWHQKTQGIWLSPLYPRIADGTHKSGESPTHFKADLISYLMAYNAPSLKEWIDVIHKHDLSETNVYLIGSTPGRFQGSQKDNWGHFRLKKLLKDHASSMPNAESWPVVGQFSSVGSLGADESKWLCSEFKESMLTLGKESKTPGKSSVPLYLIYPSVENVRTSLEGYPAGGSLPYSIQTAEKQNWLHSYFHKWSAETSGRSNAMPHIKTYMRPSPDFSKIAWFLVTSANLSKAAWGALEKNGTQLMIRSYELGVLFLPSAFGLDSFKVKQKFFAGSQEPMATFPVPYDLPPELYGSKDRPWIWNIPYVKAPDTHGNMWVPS

Row | SMILES | GI50 [1] [nM] | GI50 [2] [nM] | GI50 [3] [nM] | GI50 [4] [nM] | GI50 [5] [nM] | GI50 [6] [nM] | GI50 [7] [nM] | IC50 [8, 12] [nM] | IC50 [8, 13] [nM] | Top1 inhibitory activity (level) [9] | Top1 (compound-induced DNA cleavage due to Top1 inhibition) [9] | MGM (mean GI50 across cell lines) [10] [nM] | GI50 [11] [nM] | GI50's against various cell lines (in words) [10] | TDP1 inhibitory activity (in words) [8] | melting point [°C]
1 | COc1cc2c(=O)n(CCCN3CCOCC3)c3c(c2cc1OCCCN1CCCC1)C(=O)c1cc2c(cc1-3)OCO2 [Compound 28, 3-Methoxy-6-(3-morpholinopropyl)-2-(3-(pyrrolidin-1-yl)propoxy)-5H-[1,3]dioxolo[4′,5′:5,6]indeno[1,2-c]isoquinoline-5,12(6H)-dione] | 200 | 200 | 200 | 1200 | 300 | 200 | 40 | 1000 to 37000 | 1000 to 37000 | ++ | ++ | 600 ± 370 | 100 |  |  | 
2 | COC(=O)COc1cc2c3c(n(CCCN4CCOCC4)c(=O)c2cc1OC)-c1cc2c(cc1C3=O)OCO2 [Compound 29, Methyl 2-((3-Methoxy-6-(3-morpholinopropyl)-5,12-dioxo-6,12-dihydro-5H-[1,3]dioxolo[4′,5′:5,6]indeno[1,2-c]isoquinolin-2-yl)oxy)acetate] | 100 | 800 | 100 | 5800 | 1000 | 1100 | 900 | > 111000 |  | + or ++ | ++ | 3100 ± 1200 | 400 | low micromolar |  | 
3 | COc1cc2c(=O)n(CCCN3CCOCC3)c3c(c2cc1OCCCN1CCCCC1)C(=O)c1cc2c(cc1-3)OCO2 [Compound 27, 3-Methoxy-6-(3-morpholinopropyl)-2-(3-(piperidin-1-yl)propoxy)-5H-[1,3]dioxolo [4′,5′:5,6]indeno[1,2-c]isoquinoline-5,12(6H)-dione] | 300 | 400 | 30 | 5400 | 9600 | 1100 | 200 | 12000 to 37000 | 12000 to 37000 | +++ | +++ | 1600 ± 230 | 40 | low micromolar |  | 
4 | COc1cc2c(=O)n(CCCN3CCOCC3)c3c(c2cc1OCCCN1CCOCC1)C(=O)c1cc2c(cc1-3)OCO2 [Compound 25, 3-Methoxy-2-(3-morpholinopropoxy)-6-(3-morpholinopropyl)-5H-[1,3]dioxolo [4′,5′:5,6]indeno[1,2-c]isoquinoline-5,12(6H)-dione] | 30 | 100 | 100 | 700 | 200 | 100 | 20 | > 111000 |  | +++ | +++ | 200 ± 28 | 20 | submicromolar | no TDP1 inhibitory activity was observed | 
5 | COc1cc2c(=O)n(CCCN3CCOCC3)c3c(c2cc1OCCCN)C(=O)c1cc2c(cc1-3)OCO2 [Compound 22, 2-(3-Aminopropoxy)-3-methoxy-6-(3-morpholinopropyl)-5H-[1,3]dioxolo [4′,5′:5,6]indeno[1,2-c]isoquinoline-5,12(6H)-dione] | 300 | 300 | 200 | 400 | 300 | 200 | 300 | 37000 to 111000 |  |  |  | 500 ± 92 | 200 | submicromolar |  | > 350
